From patent US10787443B2, “RAF-degrading conjugate compounds” (ZAMBONI CHEM SOLUTIONS INC., priority 2017, dated 2020)

System: GST-Braf kinase domain and biotinylated E3 substrate adapter (VHL/EloB/EloC complex or CRBN318-425)
Experiment: Dimerization assay (AlphaScreen/AlphaLisa), RAF/E3 dimerization
Type: binding
Details: Table 15; relative value; compounds 4 fold serial dilutions from 20 μM

Row | SMILES | RAF/E3 Dimerization
1 | Cc1ncc(NC(=O)c2cccc(C(F)(F)F)c2)cc1-c1cnc(OCCc2cn(CCCCCC(=O)Nc3cccc4c3C(=O)N(C3CCC(=O)NC3=O)C4=O)nn2)c(N2CCOCC2)c1 (stereo not shown) [Compound 1.002, N-(6′-(2-(1-(6-((2-(2,6-dioxopiperidin-3-yl)-1,3-dioxoisoindolin-4-yl)amino)-6-oxohexyl)-1H-1,2,3-triazol-4-yl)ethoxy)-2-methyl-5′-morpholino-[3,3′-bipyridin]-5-yl)-3-(trifluoromethyl)benzamide] | + (5% > RAF/E3 Dimerization)
2 | Cc1ncc(NC(=O)c2cccc(C(F)(F)F)c2)cc1-c1cnc(OCCCCc2cn(CCCCCC(=O)Nc3cccc4c3C(=O)N(C3CCC(=O)NC3=O)C4=O)nn2)c(N2CCOCC2)c1 (stereo not shown) [Compound 1.004, N-(6′-(4-(1-(6-((2-(2,6-dioxopiperidin-3-yl)-1,3-dioxoisoindolin-4-yl)amino)-6-oxohexyl)-1H-1,2,3-triazol-4-yl)butoxy)-2-methyl-5′-morpholino-[3,3′-bipyridin]-5-yl)-3-(trifluoromethyl)benzamide] | + (5% > RAF/E3 Dimerization)
3 | Cc1ncc(NC(=O)c2cccc(C(F)(F)F)c2)cc1-c1cnc(OCCCCCc2cn(CCCCCC(=O)Nc3cccc4c3C(=O)N(C3CCC(=O)NC3=O)C4=O)nn2)c(N2CCOCC2)c1 (stereo not shown) [Compound 1.005, N-(6′-((5-(1-(6-((2-(2,6-dioxopiperidin-3-yl)-1,3-dioxoisoindolin-4-yl)amino)-6-oxohexyl)-1H-1,2,3-triazol-4-yl)pentyl)oxy)-2-methyl-5′-morpholino-[3,3′-bipyridin]-5-yl)-3-(trifluoromethyl)benzamide] | + (5% > RAF/E3 Dimerization)
4 | Cc1ncc(NC(=O)c2cccc(C(F)(F)F)c2)cc1-c1cnc(OCCCCCCc2cn(CCCCCC(=O)Nc3cccc4c3C(=O)N(C3CCC(=O)NC3=O)C4=O)nn2)c(N2CCOCC2)c1 (stereo not shown) [Compound 1.006, N-(6′-((6-(1-(6-((2-(2,6-dioxopiperidin-3-yl)-1,3-dioxoisoindolin-4-yl)amino)-6-oxohexyl)-1H-1,2,3-triazol-4-yl)hexyl)oxy)-2-methyl-5′-morpholino-[3,3′-bipyridin]-5-yl)-3-(trifluoromethyl)benzamide] | + (5% > RAF/E3 Dimerization)

Same assay, conditions: Table 16; relative value; compounds 4 fold serial dilutions from 20 μM

Row | SMILES | RAF/E3 Dimerization
5 | Cc1ncc(NC(=O)c2cccc(C(F)(F)F)c2)cc1-c1cnc(OCCOCCOCCOCC(=O)N[C@@H](C(=O)N2C[C@H](O)C[C@H]2C(=O)N[C@@H](C)c2ccc(-c3scnc3C)cc2)C(C)(C)C)c(N2CCOCC2)c1 [Compound 1.013, (2S,4R)-1-((R)-2-(tert-butyl)-14-((2′-methyl-5-morpholino-5′-(3-(trifluoromethyl)benza-mido)-[3,3′-bipyridin]-6-yl)oxy)-4-oxo-6,9,12-trioxa-3-azatetradecan-1-oyl)-4-hydroxy-N—((S)-1-(4-(4-methylthiazol-5-yl)phenyl)ethyl)pyrrolidine-2-carboxamide] | + + +

Same assay, conditions: Table 17; relative value; compounds 4 fold serial dilutions from 20 μM

Row | SMILES | RAF/E3 Dimerization
6 | O=C1CCC(N2C(=O)c3cccc(NC(=O)CCCCCn4cc(COCCOCCOCCOCCOCCNC(=O)c5cc(Oc6ccc(NC(=O)Nc7ccc(Cl)c(C(F)(F)F)c7)cc6)ccn5)nn4)c3C2=O)C(=O)N1 (stereo not shown) [Compound 2.028, 4-(4-(3-(4-chloro-3-(trifluoromethyl)phenyl)ureido)phenoxy)-N-(1-(1-(6-((2-(2,6-dioxopiperidin-3-yl)-1,3-dioxoisoindolin-4-yl)amino)-6-oxohexyl)-1H-1,2,3-triazol-4-yl)-2,5,8,11,14-pentaoxahexadecan-16-yl)picolinamide] | ++ (25% > RAF/E3 Dimerization ≥ 5%)
7 | Cc1ncsc1-c1ccc([C@H](C)NC(=O)[C@@H]2C[C@@H](O)CN2C(=O)[C@H](NC(=O)COCCOCCNC(=O)CCNc2nccc(-c3cn(CC(F)F)nc3-c3cnc4[nH]ccc4c3)n2)C(C)(C)C)cc1 [Compound 2.046, (2S,4R)-1-((R)-2-(tert-butyl)-15-((4-(1-(2,2-difluoroethyl)-3-(1H-pyrrolo[2,3-b]pyridin-5-yl)-1H-pyrazol-4-yl)pyrimidin-2-yl)amino)-4,13-dioxo-6,9-dioxa-3,12-diazapentadecan-1-oyl)-4-hydroxy-N—((S)-1-(4-(4-methylthiazol-5-yl)phenyl)ethyl)pyrrolidine-2-carboxamide] | +++ (50% > RAF/E3 Dimerization ≥ 25)
8 | O=C1CCC(N2C(=O)c3cccc(NC(=O)CCCCCn4cc(CCCCNC(=O)c5cc(Oc6ccc(NC(=O)Nc7ccc(Cl)c(C(F)(F)F)c7)cc6)ccn5)nn4)c3C2=O)C(=O)N1 (stereo not shown) [Compound 2.026, 4-(4-(3-(4-chloro-3-(trifluoromethyl)phenyl)ureido)phenoxy)-N-(4-(1-(6-((2-(2,6-dioxopiperidin-3-yl)-1,3-dioxoisoindolin-4-yl)amino)-6-oxohexyl)-1H-1,2,3-triazol-4-yl)butyl)picolinamide] | + (5% > RAF/E3 Dimerization)
9 | O=C1CCC(N2Cc3c(CCCOCCNC(=O)c4cc(Oc5ccc(NC(=O)Nc6ccc(Cl)c(C(F)(F)F)c6)cc5)ccn4)cccc3C2=O)C(=O)N1 (stereo not shown) [Compound 2.032, 4-(4-(3-(4-chloro-3-(trifluoromethyl)phenyl)ureido)phenoxy)-N-(2-(3-(2-(2,6-dioxopiperidin-3-yl)-1-oxoisoindolin-4-yl)propoxy)ethyl)picolinamide] | + (5% > RAF/E3 Dimerization)
10 | Cc1ncc(NC(=O)c2cccc(C(F)(F)F)c2)cc1-c1cnc(OCCOCCOCC(=O)NCCOCCCc2cccc3c2C(=O)N(C2CCC(=O)NC2=O)C3=O)c(N2CCOCC2)c1 (stereo not shown) [Compound 2.023, N-(6′-((15-(2-(2,6-dioxopiperidin-3-yl)-1,3-dioxoisoindolin-4-yl)-8-oxo-3,6,12-trioxa-9-azapentadecyl)oxy)-2-methyl-5′-morpholino-[3,3′-bipyridin]-5-yl)-3-(trifluoromethyl)ben-zamide] | + (5% > RAF/E3 Dimerization)
11 | Cc1ncc(NC(=O)c2cccc(C(F)(F)F)c2)cc1-c1cnc(O[C@@H]2CCO[C@@H](COCc3cn(CCCCCC(=O)N[C@@H](C(=O)N4C[C@H](O)C[C@H]4C(=O)N[C@@H](C)c4ccc(-c5scnc5C)cc4)C(C)(C)C)nn3)C2)c(N2CCOCC2)c1 [Compound 2.005] | ++++ (75% > RAF/E3 Dimerization ≥ 50%)
12 | O=C1CCC(N2C(=O)c3cccc(NC(=O)CCCCCn4cc(CNC(=O)c5cc(Oc6ccc(NC(=O)Nc7ccc(Cl)c(C(F)(F)F)c7)cc6)ccn5)nn4)c3C2=O)C(=O)N1 (stereo not shown) [Compound 2.024, 4-(4-(3-(4-chloro-3-(trifluoromethyl)phenyl)ureido)phenoxy)-N-((1-(6-((2-(2,6-dioxopiperidin-3-yl)-1,3-dioxoisoindolin-4-yl)amino)-6-oxohexyl)-1H-1,2,3-triazol-4-yl)methyl)picolinamide] | ++ (25% > RAF/E3 Dimerization ≥ 5%)
13 | CNc1ncc2cc(-c3cc(NC(=O)NCCOCCOCCOCCOCCOCC(=O)N[C@@H](C(=O)N4C[C@H](O)C[C@H]4C(=O)N[C@@H](C)c4ccc(-c5scnc5C)cc4)C(C)(C)C)c(F)cc3C)c(C)nc2n1 [Compound 2.040, (2S,4R)-1-((R)-21-(tert-butyl)-1-((2-fluoro-4-methyl-5-(7-methyl-2-(methylamino)pyrido[2,3-d]pyrimidin-6-yl)phenyl)amino)-1,19-dioxo-5,8,11,14,17-pentaoxa-2,20-diazadocosan-22-oyl)-4-hydroxy-N—((S)-1-(4-(4-methylthiazol-5-yl)phenyl)ethyl)pyrrolidine-2-carboxamide] | + (5% > RAF/E3 Dimerization)
